The values that follow come from US20250009774A1, “COMPOSITIONS AND METHODS USING A COMBINATION OF OLEUROPEIN AND MAGNESIUM” (SOCIETE DES PRODUITS NESTLE S.A., priority 2021, published 2025).

Each structure is given as a SMILES string.

The subject of the experiment is myotubes differentiated from C2C12 cells. Nature of the experiment: mitochondrial calcium elevation (mitochondrial aequorin luminescence) on caffeine stimulation. The following applies: 1 mM Mg^2+ + 3 μM Oea; C2C12-derived myotubes; 5 mM caffeine; n=32; P<0.05 Student's t-test; FIG. 1. It counts as cell-based. Here is the method: To test the effect of Oleuropein aglycone (Oea), Mg^2+ and their combination on mitochondrial activation in living cells, the inventors measured mitochondrial calcium elevation in myotubes differentiated from C2C12 cells.
C2C12 cells were purchased from ATCC. C2C12 cells were seeded in 384-well plates at a density of 4500 cells per well in DMEM medium, high glucose (Gibco)+10% fetal calf serum. Myotubes were differentiated from C2C12 cells by growing the cells in DMEM containing 2% horse serum, for 6 days.
Mitochondrial calcium measurements were carried out using myotubes infected with the adenovirus (from Sirion biotech) expressing the luminescent mitochondrially-targeted calcium sensor mitochondrial mutated aequorin (Montero et al., 2004). […] Myotubes were stimulated with 5 mM of caffeine and the total calcium transiting during stimulation was calculated as the area under the curve, during caffeine stimulation. Luminescence was measured at the FLIPR cell imaging reader (Molecular devices). Calibration of the luminescence data into Calcium concentration was carried out using an algorithm as described previously (Alvarez & Montero, 2002). Custom module analysis based on Excel (Microsoft) and GraphPad Prism 7.02 (GraphPad) software was used for quantification.

For the compound `C/C=C1/C(O)OC=C(C(=O)OC)[C@H]1CC(=O)OCCc1ccc(O)c(O)c1` (mixture of isomers) [Oleuropein aglycone], the “mitochondrial calcium rise: real measured effect of the combination vs expected theoretical effect (sum of Oea effect and Mg^2+ effect)” value was “synergies with Mg^2+ to activate mitochondria”.
